# Source: patent US20080139613A1, “Chemical Compound” (AstraZeneca AB, priority 2006, published 2008)
# Experiments:
# CCR5 = target: T1, CCR5 (Homo sapiens, UniProt P51681); test: Displacement of radio-labelled CCR5 antagonist from Allo-T cell membranes; assay type: binding; settings: membranes of human allo-reactive T cells; 2 nM [3H] CCR5 antagonist; 2 hours at room temperature
# T1 construct: After 21 to 34 days culture, the membranes were prepared from the cells; endogenous in cells; host or cells: Allo-T cells (allo-reactive T cell line from human PBMCs), membrane preparation
# T1 sequence (P51681 whole entry): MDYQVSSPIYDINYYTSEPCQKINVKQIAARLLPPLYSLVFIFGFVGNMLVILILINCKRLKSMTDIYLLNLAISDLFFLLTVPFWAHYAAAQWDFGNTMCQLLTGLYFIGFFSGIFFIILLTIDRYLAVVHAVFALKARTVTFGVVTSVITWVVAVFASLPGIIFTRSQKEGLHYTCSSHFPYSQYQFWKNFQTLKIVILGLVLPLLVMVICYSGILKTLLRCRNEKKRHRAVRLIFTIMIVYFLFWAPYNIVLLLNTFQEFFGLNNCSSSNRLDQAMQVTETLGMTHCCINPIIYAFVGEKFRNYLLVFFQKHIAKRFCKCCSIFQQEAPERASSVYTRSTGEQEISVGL
# Method: The ability of the compound of the present invention to inhibit the binding of MIP-1β (CCL-4) was measured:
# An allo-reactive T cell line was generated by exposure of human peripheral blood mononuclear cells (PBMCs) to L-DR4/B7 fibroblasts (immobilised with glutaraldehyde fixation and irradiation) and subsequent expansion with anti-CD3 and IL-2 for 14 days. The resultant Allo-T cells were frozen. When required, the cells were grown and re-challenged with irradiated HLA-DR4+ve PBMCs and expanded with anti-CD3 and IL-2. After 21 to 34 days culture, the membranes were prepared from the cells. These membranes were incubated in 96-well plates with 2 nM of the radio-labelled CCR5 antagonist [^3H]1-{(3R)-3-(3,5-difluorophenyl)-3-[4-(methylsulfonyl)phenyl]propyl}-4-(2-{[4-(methylsulfonyl)phenyl]sulfonyl}ethyl)piperidine and various concentrations of the compound of the invention for 2 hours at room temperature. The plates were then harvested onto GF/B filter plates (which had been pre-soaked soaked in 0.3% PEI containing 0.2% BSA for 10 min at 4° C.) using a Packard Unifilter harvester using 10 wash steps. The amount of [^3H]1-{(3R)-3-(3,5-difluorophenyl)-3-[4-(methylsulfonyl)phenyl]propyl}-4-(2-{[4-(methylsulfonyl)phenyl]sulfonyl}ethyl)piperidine retained on the filter plates was determined by scintillation counting. […]
# [1] = Rat pharmacokinetics after intravenous and oral dosing; assay type: in vivo; settings: male Han Wistar rat; for clearance / half-life / Vd: Alderley Park Han Wistar, whole blood, intravenous 2 mg/kg; for clearance: blood clearance; for half-life: read-out: T½ (converted); for Vd: volume of distribution, read-out: Vdss; for F: bioavailability, oral 2 mg/kg vs intravenous 2 mg/kg
# Method: The rat pharmacokinetic (PK) parameters blood clearance (CL), volume of distribution (Vdss) and half life (t1/2) are calculated by determining the concentration (exposure) of test compound in whole blood samples taken from rats at various, defined time points subsequent to the intra-venous dosing (administration) of formulated test compound. The rat PK parameter bioavailability (F) is calculated by determining the concentration (exposure) of test compound in whole blood samples taken from rats at various, defined time-points subsequent to the oral dosing (administration) of formulated test compound and then by comparison of the ratio of the dose normalized total oral exposure (AUCpo) with the dose normalized total intra-venous exposure (AUCiv). Fraction absorbed (Fabs) is a secondary PK parameter that is often calculated from a knowledge of the clearance (CL) and bioavailability (F) of a test compound. The equation for determination of Fabs is as follows: […]
# where Qh is the species liver blood flow (ml/min/kg).
# For intravenous dosing, test compounds are dissolved in dimethyl acetamide (DMA) and then diluted with water such that the final test compound concentration is 1 mg/ml and the composition of the formulation is 40% DMA: 60% water. Male rats (n=2, Alderley Park Han Wistar strain) are then administered, via the tail vein, the test compound formulation at a dose volume of 2 ml/kg bodyweight such that each rat receives a total test compound dose of 2 mg/kg bodyweight. Blood sampling post IV dosing is via needle stick puncture of the tail vein and is serial in design: two rats have blood samples taken at 5, 20, 40, 90, 180, 360, 720 and 1440 (cardiac puncture) minutes after dosing.
# For oral dosing, test compounds are dissolved in dimethyl sulphoxide (DMSO and then diluted with hydroxymethyl cellulose (HPMC) 0.5% w/v-Tween 80 (0.1% v/v) such that the final test compound concentration is 1 mg/ml and the composition of the formulation is 5% DMSO:95% HPMC/Tween. Male rats (n=2, Alderley Park Han Wistar strain) are then administered, via oral gavage, the test compound formulation at a dose volume of 2 ml/kg bodyweight such that each rat receives a total test compound dose of 2 mg/kg bodyweight. Blood sampling post oral dosing is via needle stick puncture of the tail vein and is serial in design: two rats have blood samples taken at 15, 30, 60, 120, 180, 360, 720 and 1440 (cardiac puncture) minutes after dosing. All blood samples are collected into lithium heparin tubes to prevent clotting. Aliqouts of blood are then diluted 1:1 with water and then frozen at −20° C. prior to being assayed to determine test compound concentration.
# Calibration standard samples are prepared by addition of known amounts of test compound to blank diluted (1:1) blood samples. Calibration standards and unknown samples are then diluted and mixed with 3 parts ice-cold acetonitrile (containing suitable internal standard) to precipitate proteinaceous material. Following centrifugation, sample and calibration standard supernatants are analysed for test compound concentration by HPLC with MS/MS (triple quad mass spectrometry) detection. Quantification of test compound concentrations in the blood samples taken from the rats is achieved by reference to a standard curve constructed from the calibration standard samples.
# Blood concentration—time point data and other information such as IV and PO dose is then entered into and analysed by a commercially available non-linear regression software program (WinNonLin version 4.1, Pharsight Corporation) to determine the rat PK parameters of interest (as described above).
IC50 (CCR5),clearance [1],half-life [1],Vd [1],F [1],SMILES
6.5 nM,18 mL/min/kg,4 h,4.1 L/kg,28%,"CCc1nnc(C(C)C)n1C1CCN([C@H](C)C[C@@H](c2cc(F)cc(F)c2)C2CCN(S(C)(=O)=O)CC2)CC1 (single isomer, unassigned)"
32 nM,37 mL/min/kg,2.7 h,4.9 L/kg,1%,"Cc1nnc(C(C)C)n1C1CCN(C(C)C[C@@H](c2cc(F)cc(F)c2)C2CCN(S(C)(=O)=O)CC2)CC1 (single isomer, unassigned) [Comparator Compound A]"
